Measured values as given in patent publication EP4813403A1, “USE OF GLP-1R/GIPR DOUBLE-TARGET AGONIST IN PREPARING ANIMAL DRUG” (Hangzhou Zhongmeihuadong Pharmaceutical Co., Ltd., priority 2023, dated 2025).

Key:
Format in all cases: cell-based
Settings in all cases: ratio of EC50 value of other species to human EC50 value
[1] = system: cat GIPR; assay: Agonistic activity on GIPR of different species (LANCE Ultra cAMP assay): cat
Experimental: (§1) CHO-K1 cells were seeded in a 6-well plate at 0.6×10^6 cells/well and incubated overnight in an incubator at a temperature of 37 °C and a carbon dioxide concentration of 5%. The next day, CHO-K1 cell media were replaced. Then two tubes A and B were prepared for each plasmid. 100 µL Opti-MEM was added to tube A, then 4 µL Lipofectamine™ 3000 was added and mixed uniformly. 100 µL Opti-MEM was firstly added to tube B, then 2 µg of one of the plasmids (human GLP-1R-pcDNA5 (+) plasmid, cat GLP-1R-pcDNA5 (+) plasmid, human GIPR-pcDNA5 (+) plasmid, cat GIPR-pcDNA5 (+) plasmid) was added and mixed uniformly, and 4 µL P3000™ was added to tube B and mixed uniformly (the ratio of plasmid to transfection reagent was 1 µg: 2 µL). The diluted solution in tube A was added to the diluted solution in tube B, mixed evenly, and incubated at room temperature for 15 minutes. […]
(§2) 18-20 hours after transfection, human GLP-1R-CHO, cat GLP-1R-CHO, human GIPR-CHO, cat GIPR-CHO cells were resuspended in 1×Casein Stimulation Buffer (HBSS, 5 mM HEPES, 0.5 mM IBMX, 0.1% casein, pH7.4), and seeded into a 384-well cell culture plate at 9 µL/well (cell numbers being 2000, 2000, 1000, 2000 cells/well, respectively). […] The readings at 665 nm and 620 nm were determined with a 330 nm excitation light on a microplate reader. The 665 nm/620 nm reading ratio was calculated. […]

[2] = molecular target: T1, mouse GLP-1R (Mus musculus, UniProt O35659); assay: Agonistic activity on GLP-1R of different species (LANCE Ultra cAMP assay): mouse
T1 construct: expressed in transfected cells
T1 sequence (O35659 22-463): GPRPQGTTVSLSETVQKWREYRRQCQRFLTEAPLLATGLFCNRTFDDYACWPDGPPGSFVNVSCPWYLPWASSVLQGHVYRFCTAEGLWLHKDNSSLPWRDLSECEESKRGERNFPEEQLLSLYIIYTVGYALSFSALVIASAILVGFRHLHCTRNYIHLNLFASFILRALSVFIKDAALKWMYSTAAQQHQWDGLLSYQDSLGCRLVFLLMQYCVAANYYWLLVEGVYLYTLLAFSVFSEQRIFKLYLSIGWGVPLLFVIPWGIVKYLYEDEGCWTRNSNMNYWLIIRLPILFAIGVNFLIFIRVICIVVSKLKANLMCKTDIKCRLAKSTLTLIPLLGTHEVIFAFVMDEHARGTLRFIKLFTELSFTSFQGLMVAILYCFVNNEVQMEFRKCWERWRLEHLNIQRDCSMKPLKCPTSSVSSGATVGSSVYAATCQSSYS

[3] = molecular target: T2, rat GLP-1R (Rattus norvegicus, UniProt P32301); assay: Agonistic activity on GLP-1R of different species (LANCE Ultra cAMP assay): rat
T2 construct: expressed in transfected cells
T2 sequence (P32301 22-463): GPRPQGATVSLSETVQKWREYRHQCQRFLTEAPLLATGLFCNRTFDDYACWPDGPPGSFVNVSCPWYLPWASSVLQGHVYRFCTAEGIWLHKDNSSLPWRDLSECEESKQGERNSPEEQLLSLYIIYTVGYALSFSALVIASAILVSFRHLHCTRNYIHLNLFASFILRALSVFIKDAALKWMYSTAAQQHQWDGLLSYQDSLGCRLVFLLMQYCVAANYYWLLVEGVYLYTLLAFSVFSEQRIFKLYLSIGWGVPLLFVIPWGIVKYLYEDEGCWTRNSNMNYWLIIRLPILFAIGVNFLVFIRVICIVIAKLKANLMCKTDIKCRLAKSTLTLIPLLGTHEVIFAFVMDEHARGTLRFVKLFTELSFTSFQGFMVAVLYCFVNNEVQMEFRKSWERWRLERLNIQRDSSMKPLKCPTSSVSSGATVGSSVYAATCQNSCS

[4] = system: monkey GLP-1R; assay: Agonistic activity on GLP-1R of different species (LANCE Ultra cAMP assay): monkey
Experimental: The in vitro agonistic activity of the compound of the present invention on GLP-1R was measured in cells stably expressing human, dog, mouse, rat, rabbit, and monkey GLP-1R (human GLP-1R-HEK, dog GLP-1R-HEK, mouse GLP-1R-HEK, rat GLP-1R- in HEK, rabbit GLP-1R-CHO, monkey GLP-1R-HEK cells). Human GLP-1R-HEK, dog GLP-1R-HEK, mouse GLP-1R-HEK, rat GLP-1R-HEK, rabbit GLP-1R-CHO, and monkey GLP-1R-HEK cells were resuspended in 1×Casein Stimulation Buffer (HBSS, 5 mM HEPES, 0.5 mM IBMX, 0.1% casein, pH7.4), and seeded into a 384-well cell culture plate at 9 µL/well (cell numbers being 1000, 1000, 1000, 1500, 1000, 1000 cells/well, respectively). 1 µL of 1×Casein Stimulation Buffer containing 10× compound was added to the above-mentioned 384-well cell culture plate. The plate was incubated at 37 °C for 30 minutes. After the incubation was completed, 5 µL of Eu-cAMP working solution and 5 µL of Ulight^TM-cAMP working solution were added sequentially, centrifuged and then incubated at room temperature for 1 hour. The readings at 665 nm and 620 nm were determined with a 330 nm excitation light on a microplate reader. The 665 nm/620 nm reading ratio was calculated. […] GraphPad was used to perform nonlinear regression according to the response percentage and the concentration of the compound added to obtain the EC50 value for each compound.

[5] = system: cat GLP-1R; assay: Agonistic activity on GLP-1R of different species (LANCE Ultra cAMP assay): cat
Experimental: as §1, §2

`CC[C@H](C)[C@H](NC(=O)C(C)(C)NC(=O)[C@H](Cc1ccc(O)cc1)NC(=O)[C@H](CC(=O)O)NC(=O)[C@H](CO)NC(=O)[C@@H](NC(=O)C(C)(Cc1ccccc1)NC(=O)[C@@H](NC(=O)CNC(=O)[C@H](CCC(=O)O)NC(=O)C(C)(C)NC(=O)[C@@H](N)Cc1ccc(O)cc1)[C@@H](C)O)[C@@H](C)O)C(=O)NC(C)(C)C(=O)N[C@@H](CC(C)C)C(=O)N[C@@H](CC(=O)O)C(=O)N[C@@H](CCCCN)C(=O)N[C@@H](CCC(N)=O)C(=O)N[C@@H](C)C(=O)N[C@@H](CCC(N)=O)C(=O)N[C@@H](C)C(=O)N[C@@H](CCC(=O)O)C(=O)N[C@@H](Cc1ccccc1)C(=O)N[C@H](C(=O)N[C@@H](CCCCNC(=O)COCCOCCNC(=O)COCCOCCNC(=O)COCCOCCNC(=O)CC[C@H](NC(=O)CCCCCCCCCCCCCCCCCCCCC(=O)O)C(=O)O)C(=O)N[C@@H](Cc1c[nH]c2ccccc12)C(=O)N[C@@H](CC(C)C)C(=O)N[C@@H](CC(C)C)C(=O)N[C@@H](CCCCN)C(=O)NCC(=O)NCC(=O)N1CCC[C@H]1C(=O)N[C@@H](CO)C(=O)N[C@@H](CO)C(=O)NCC(=O)N[C@@H](C)C(=O)N1CCC[C@H]1C(=O)N1CCC[C@H]1C(=O)N1CCC[C@H]1C(=O)N[C@@H](CO)C(=O)N[C@@H](CCCCN)C(N)=O)C(C)C` (some centres unmarked) [Compound P016] was tested, and the “GIPR EC50 ratio” value [1] was 3.59, the “GLP-1R EC50 ratio” value [2] was 1.09 and the “GLP-1R EC50 ratio” value [3] was 1.59. The “GLP-1R EC50 ratio” value [4] was 2.66 and the “GLP-1R EC50 ratio” value [5] was 2.98.
